Results reported in patent US20260297060A1, “COMPOUNDS FOR THE DEGRADATION OF MUTANT BRAF” (C4 THERAPEUTICS, INC., priority 2023, published 2026).

Tested on: A375 human melanoma xenografts
Assay: In vivo therapeutic efficacy in A375 human melanoma xenografts (tumor volume, T/C, TGI), Example 14
Design: species or system human tumor in female BALB/c nude mice
Experimental: Agents were tested in the A375 human melanoma xenografts. Compound 26 and Compound 141 were administered to BALB/c nude mice bearing A375 tumors from PG-DO and dosed via PO twice a day (BID) or third a day (TIP) or dosed P daily (QD) from PG-D. Dabrafenib was administered to BALB/c nude mice bearing A375 tumors from PG-D1 and dosed via P daily (QD). Compound 26 was dosed at 1.5 mg/kg (QD), 2 mg/kg (TID), 3 mg/kg (BID), 6 mg/kg (QD) and 10 mg/kg (BID) for 21 days. Compound 141 was dosed at 0.75 mg/kg (BID), 1 mg/kg (TID), 1.5 mg/kg (BID), 3 mg/kg (QD) and 5 mg/kg (BID) for 21 days. Dabrafenib was dosed at 100 mg/kg for 21 days. This study was non-GLP.
One hundred and thirty-eight female BALB/c nude Mus Musculus mice procured from Shanghai Lingchang Biological Science and Technology Co., LTD between the ages of six to eight weeks and with body weight between eighteen and twenty-two grams were used for the study. A spare mouse was also procured.
The A375 tumor cells were maintained in vitro in DMEM medium supplemented with 10% fetal bovine serum and 1% Penicillin-Streptomycin at 37° C. in an atmosphere of 5% CO2 in air. The tumor cells were routinely sub-cultured twice weekly. The cells growing in an exponential growth phase were harvested and counted for tumor inoculation.
Each mouse was inoculated subcutaneously at the right flank with A375 cells (5×10^6) in 0.2 mL of PBS supplemented with Matrigel (PBS: Matrigel=1:1) for tumor development. Animals were grouped for efficacy study on day 15 after tumor inoculation when the average tumor volume reached 220 mm^3. The test articles administration and the animal numbers in each group are shown in the above experimental Table 75.
At the time of routine monitoring, the animals were checked daily for any effects of tumor growth and treatments on normal behavior such as mobility, food and water consumption (by looking only), body weight gain/loss (body weights were measured twice weekly), eye/hair matting and any other abnormal effect as stated in the protocol. Death and observed clinical signs were recorded on the basis of the numbers of animals within each subset.
Prior to the onset of drug treatment, mice were measured for tumor size in two dimensions using a caliper, and the tumor volume (mm^3) was calculated using formula V=0.5 a×b^2 where a and b are the long and short diameters of the tumor in mm, respectively. Mice were randomized into different treatment groups based on the tumor volume.
The major endpoint was to see if the tumor growth could be delayed or mice could be cured. The tumor size was then used for calculations of T/C value. The T/C value (in percent) is an indication of antitumor effectiveness; T and C are the mean volumes of the treated and control groups, respectively on specified day.
TGI was calculated for each group using the formula: TGI (%)=[1−(Ti−T0)/(Ci−C0)]×100; Ti is the average tumor volume of a treatment group on a given day, T0 is the average tumor volume of the treatment group on the day of treatment start, Ci is the average tumor volume of the vehicle control group on the same day with Ti, and C0 is the average tumor volume of the vehicle group on the day of treatment start.
A one-way ANOVA followed by Dunnett's multiple comparison test was performed to compare tumor volume among vehicle group (Group 1) and treatment groups (Group 2-Group 12). All data were analyzed using GraphPad Prism, ns indicates p>0.05, * indicates p<0.05, ** indicates p<0.01, *** indicates p<0.001 and **** indicates p<0.0001.
Tumor growth inhibition of Compound 26, Compound 141 and dabrafenib in the treatment of female BALB/c nude mice bearing A375 xenografts was calculated based on tumor volume measured on […]. TGI and T/C were calculated respectively and the data are detailed in Table 82.

[1] = 2 mg/kg p.o. TID × 21 days, PG-D21

CCN(C)S(=O)(=O)Nc1ccc(F)c(Oc2ccc3ncn([C@H]4COC5(CCN(C6CC7(C6)CN(c6cc8c(cc6F)c(N6CCC(=O)NC6=O)nn8C)C7)CC5)C4)c(=O)c3c2)c1C#N [Compound 26, (3R)-3-[6-[2-cyano-3-[[ethyl(methyl)sulfamoyl]amino]-6-fluoro-phenoxy]-4-oxo-quinazolin-3-yl]-8-[2-[3-(2,4-dioxohexahydropyrimidin-1-yl)-5-fluoro-1-methyl-indazol-6-yl]-2-azaspiro[3.3]heptan-6-yl]-1-oxa-8-azaspiro[4.5]decane]
Tumor volume (1.5 mg/kg p.o. BID x 21 days, day 0, mean ± SEM): 220 ± 16 mm^3 | Tumor volume (1.5 mg/kg p.o. BID x 21 days, day 4, mean ± SEM): 249 ± 21 mm^3 | Tumor volume (1.5 mg/kg p.o. BID x 21 days, day 7, mean ± SEM): 227 ± 23 mm^3 | Tumor volume (1.5 mg/kg p.o. BID x 21 days, day 11, mean ± SEM): 210 ± 26 mm^3 | Tumor volume (1.5 mg/kg p.o. BID x 21 days, day 14, mean ± SEM): 204 ± 26 mm^3 | Tumor volume (1.5 mg/kg p.o. BID x 21 days, day 18, mean ± SEM): 271 ± 44 mm^3 | Tumor volume (1.5 mg/kg p.o. BID x 21 days, day 21, mean ± SEM): 400 ± 70 mm^3 | Tumor volume (1.5 mg/kg p.o. BID x 21 days, day 25 (dosing-free regrowth), mean ± SEM): 730 ± 94 mm^3 | Tumor volume (1.5 mg/kg p.o. BID x 21 days, day 28 (dosing-free regrowth), mean ± SEM): 1006 ± 99 mm^3 | Tumor volume (1.5 mg/kg p.o. BID x 21 days, day 32 (dosing-free regrowth), mean ± SEM): 1224 ± 99 mm^3 | Tumor volume (1.5 mg/kg p.o. BID x 21 days, day 35 (dosing-free regrowth), mean ± SEM): 1497 ± 94 mm^3 | Tumor volume (1.5 mg/kg p.o. BID x 21 days, day 39 (dosing-free regrowth), mean ± SEM): 1978 ± 148 mm^3 | Tumor volume (1.5 mg/kg p.o. BID x 21 days, day 42 (dosing-free regrowth), mean ± SEM): 2420 ± 205 mm^3 | Tumor volume (1.5 mg/kg p.o. BID x 21 days, day 46 (dosing-free regrowth), mean ± SEM): 2759 ± 274 mm^3 | Tumor volume (1.5 mg/kg p.o. BID x 21 days, day 49 (dosing-free regrowth), mean ± SEM): 2514 ± 268 mm^3 | Tumor volume (1.5 mg/kg p.o. BID x 21 days, day 53 (dosing-free regrowth), mean ± SEM): 3087 ± 444 mm^3 | Tumor volume (1.5 mg/kg p.o. BID x 21 days, day 56 (dosing-free regrowth)): 3153 mm^3 | Tumor volume (2 mg/kg p.o. TID x 21 days, day 0, mean ± SEM): 220 ± 15 mm^3 | Tumor volume (2 mg/kg p.o. TID x 21 days, day 4, mean ± SEM): 172 ± 13 mm^3 | Tumor volume (2 mg/kg p.o. TID x 21 days, day 7, mean ± SEM): 99 ± 9 mm^3 | Tumor volume (2 mg/kg p.o. TID x 21 days, day 11, mean ± SEM): 68 ± 8 mm^3 | Tumor volume (2 mg/kg p.o. TID x 21 days, day 14, mean ± SEM): 51 ± 7 mm^3 | Tumor volume (2 mg/kg p.o. TID x 21 days, day 18, mean ± SEM): 36 ± 4 mm^3 | Tumor volume (2 mg/kg p.o. TID x 21 days, day 21, mean ± SEM): 41 ± 5 mm^3 | Tumor volume (2 mg/kg p.o. TID x 21 days, day 25 (dosing-free regrowth), mean ± SEM): 85 ± 16 mm^3 | Tumor volume (2 mg/kg p.o. TID x 21 days, day 28 (dosing-free regrowth), mean ± SEM): 156 ± 32 mm^3 | Tumor volume (2 mg/kg p.o. TID x 21 days, day 32 (dosing-free regrowth), mean ± SEM): 292 ± 57 mm^3 | Tumor volume (2 mg/kg p.o. TID x 21 days, day 35 (dosing-free regrowth), mean ± SEM): 441 ± 86 mm^3 | Tumor volume (2 mg/kg p.o. TID x 21 days, day 39 (dosing-free regrowth), mean ± SEM): 754 ± 156 mm^3 | Tumor volume (2 mg/kg p.o. TID x 21 days, day 42 (dosing-free regrowth), mean ± SEM): 980 ± 198 mm^3 | Tumor volume (2 mg/kg p.o. TID x 21 days, day 46 (dosing-free regrowth), mean ± SEM): 1320 ± 265 mm^3 | Tumor volume (2 mg/kg p.o. TID x 21 days, day 49 (dosing-free regrowth), mean ± SEM): 1646 ± 332 mm^3 | Tumor volume (2 mg/kg p.o. TID x 21 days, day 53 (dosing-free regrowth), mean ± SEM): 2216 ± 435 mm^3 | Tumor volume (2 mg/kg p.o. TID x 21 days, day 56 (dosing-free regrowth), mean ± SEM): 2482 ± 579 mm^3 | Tumor Size on PG-D21 (Mean ± SEM) (2 mg/kg p.o. TID × 21 days): 41 ± 5 mm^3 | T/C [1]: 2.2% | TGI [1]: 110.8% | Tumor volume (3 mg/kg p.o. BID x 21 days, day 0, mean ± SEM): 220 ± 15 mm^3 | Tumor volume (3 mg/kg p.o. BID x 21 days, day 4, mean ± SEM): 219 ± 16 mm^3 | Tumor volume (3 mg/kg p.o. BID x 21 days, day 7, mean ± SEM): 136 ± 11 mm^3 | Tumor volume (3 mg/kg p.o. BID x 21 days, day 11, mean ± SEM): 83 ± 6 mm^3 | Tumor volume (3 mg/kg p.o. BID x 21 days, day 14, mean ± SEM): 52 ± 5 mm^3 | Tumor volume (3 mg/kg p.o. BID x 21 days, day 18, mean ± SEM): 45 ± 7 mm^3 | Tumor volume (3 mg/kg p.o. BID x 21 days, day 21, mean ± SEM): 48 ± 9 mm^3 | Tumor volume (3 mg/kg p.o. BID x 21 days, day 25 (dosing-free regrowth), mean ± SEM): 129 ± 75 mm^3 | Tumor volume (3 mg/kg p.o. BID x 21 days, day 28 (dosing-free regrowth), mean ± SEM): 258 ± 165 mm^3 | Tumor volume (3 mg/kg p.o. BID x 21 days, day 32 (dosing-free regrowth), mean ± SEM): 423 ± 234 mm^3 | Tumor volume (3 mg/kg p.o. BID x 21 days, day 35 (dosing-free regrowth), mean ± SEM): 578 ± 289 mm^3 | Tumor volume (3 mg/kg p.o. BID x 21 days, day 39 (dosing-free regrowth), mean ± SEM): 878 ± 311 mm^3 | Tumor volume (3 mg/kg p.o. BID x 21 days, day 42 (dosing-free regrowth), mean ± SEM): 1129 ± 390 mm^3
